The source of these data is the METLIN SMRT retention time set (Domingo-Almenara et al. 2019).

The data set can be described thus: gradient 5% acetonitrile 3 min, to 50% in 2 min, to 85% in 15 min, held 3 min, 100 µL/min. To be noted: column: Zorbax Extend-C18 2.1 x 50 mm; eluents: water / acetonitrile, 0.1% formic acid. A digest of the protocol:
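In both positive and negative ionization mode, a quadrupole time-of-flight mass spectrometer coupled to HPLC analyzed pure standards run in mixtures of ~100 molecules. The Zorbax Extend-C18 column (2.1 × 50 mm, 1.8 μm) was operated at 100 μL/min with water and acetonitrile, each containing 0.1% formic acid. The dead volume was 40 μL and the dwell volume 900 μL. Retention time came from adduct peaks that were computationally picked and individually inspected by hand.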
For the compound `Fc1ccc(CN2CCCCC2c2nc(-c3cnccn3)no2)c(F)c1` (centres undefined), the RP-LC retention time was determined as 738 s.
For `CCCC(=O)NCCn1c(=O)n(Cc2ccc(C)cc2)c2cccnc21`, the RP-LC retention time amounted to 759 s.
Then `COc1ccccc1-c1nc(Cn2nnc(-c3nc(-c4ccc(C(F)(F)F)cc4)no3)c2C)c(C)o1`, with 1240 s; and `O=C(c1ccc(-c2ccc3c(c2)CCN3S(=O)(=O)c2cccc(F)c2)cc1)N1CCOCC1`, with 937 s.
The result for `Cc1nc(-c2ccc(-c3noc(CNS(=O)(=O)c4ccccc4)n3)cc2)cs1` reads 960 s; that for `CCOCCCNC(=O)c1cc2sccc2n1Cc1ccc(Cl)cc1`, 1040 s.
The compound `O=C(Nc1ccc(F)c(Cl)c1)C1CCCN(c2ncc(-c3ccc(F)cc3)cn2)C1` (centres undefined) came in with an RP-LC retention time of 1230 s.
In turn, `COCCn1nc2n(c1=O)CCN(Cc1cccc(OC)n1)CC2` gave an RP-LC retention time of 515 s.
With `Cc1noc([C@@H]2CN(S(=O)(=O)c3ccc(Cl)s3)C[C@H]2C(N)=O)n1`, the RP-LC retention time was 732 s.
As for `Cc1nc(OCC(=O)Nc2ccc(Cl)cc2Cl)c2ccccc2n1`, the RP-LC retention time came out at 831 s.
Then `CCN1CCN(Cc2ccc(C(=O)NCc3cc(F)cc(F)c3)cc2)C(=O)C1=O`, with 682 s; and `CCN(CC)S(=O)(=O)c1ccc2c(c1)N(CC(=O)NCc1cccnc1)C(=O)C1CCCCN21` (centres undefined), with 653 s.
Then `CN(C)c1cc(OC2CCN(C(=O)c3c[nH]c4ccccc34)C2)ncn1` (centres undefined), with 604 s.
Then `Cn1cnc(S(=O)(=O)NCCc2noc(-c3ccncc3)n2)c1`, with 596 s; and `Cc1ccc(C)c(NC(=O)c2cnc(-c3ccc(F)cc3)nc2-c2ccncc2)c1`, with 943 s; and `CC(C)Cc1ccc(S(=O)(=O)N2CCC3(CC2)c2nccn2CCN3C)cc1`, with 777 s.
In the case of `CC(C)N1C(=O)c2cccnc2Sc2cc(NC(=O)c3cc(Cl)ccc3F)ccc21`, the RP-LC retention time was 973 s.
The result for `COc1cccc(-c2nc(Cc3nc(-c4ccccc4)oc3C)no2)c1` reads 1100 s; that for `Cn1cc(-c2cc3n(n2)CCC(=O)N3CC(=O)NC2CCCCCC2)c2ccccc21`, 856 s; that for `CCS(=O)(=O)N1CCCc2cc(C(=O)N3CCOCC3)ccc21`, 679 s.
The result for `CNC(=O)c1ccccc1Nc1nc(Nc2ccc(N3CCOCC3)cc2OC)ncc1Cl` reads 722 s; that for `O=C(Cc1ccccc1F)N1CCC(c2nc(-c3ccccc3)no2)C1` (centres undefined), 922 s; that for `COc1cccc(-c2ccc(=O)n(CCc3nc(-c4ccc(C)cc4)no3)n2)c1`, 999 s.
Take `Cc1cc(-c2nc3ccccc3s2)ccc1N`: the RP-LC retention time was found to be 880 s.
The result for `O=C(COc1ccccc1F)NC1CC(=O)N(C2CC2)C1` (centres undefined) reads 611 s.
Then `CCC(C)NC(=O)N1CCc2c(c(-c3nc(-c4cccc(F)c4)no3)nn2C)C1` (centres undefined), with 904 s; and `CCS(=O)(=O)c1nc2ccc(NS(=O)(=O)c3cc(C)cc(C)c3)cc2s1`, with 936 s; and `C=CCNS(=O)(=O)CCNC(=O)c1ccccc1`, with 629 s.
`CN(c1ccc(F)cc1)S(=O)(=O)N1CCCC(C(=O)NCCc2c[nH]c3ccccc23)C1` (centres undefined) returned an RP-LC retention time of 932 s.
The result for `Cc1ccc(NC(=O)C2CCCN2S(=O)(=O)c2cc3c(cc2Cl)NC(=O)CO3)cc1F` (centres undefined) reads 844 s; that for `CN(C)C(=O)c1csc(S(=O)(=O)N2CCC(C(=O)NCc3cccnc3)CC2)c1`, 579 s.
Compound `O=C1CC(c2nc3ccccc3n2CC(O)COc2ccccc2Cl)CN1Cc1ccccc1` (centres undefined) had an RP-LC retention time of 797 s.
The compound `Fc1ccc(-c2ccc(CNCc3ccccn3)o2)cc1` showed an RP-LC retention time of 655 s.
`COc1ccc2c(C)cc(C)nc2n1`: the RP-LC retention time is 595 s.
Then `COc1ccc(OC)c(NC(=O)C2(CCO)CCN(c3ncccn3)C2)c1` (centres undefined), with 631 s; and `CCOC(=O)c1cccc(NC(=O)N2CCN(C)c3ncccc32)c1`, with 637 s; and `CCOc1cccc2cc(C(=O)Nc3nc(-c4ccccc4)cs3)c(=N)oc12`, with 987 s.
`O=C(Cc1cccs1)Nc1cccn2nc(C3CCC3)nc12`: the RP-LC retention time is 889 s.
The result for `COc1ncccc1CNC(=O)c1cccs1` reads 694 s; that for `CCOC(=O)C1CCN(C(=O)COc2ccc(NC(=O)C3CC3)cn2)CC1`, 682 s.
In turn, `CNC(=O)N1CCCC(c2cccc(C(=O)NCc3ccc(Br)cc3)c2)C1` (centres undefined) had an RP-LC retention time of 830 s.
The compound `O=C(NCc1nnnn1C1CCCCC1)c1c(F)cccc1Cl` showed an RP-LC retention time of 763 s.
Consider `CCc1csc(-c2ccc(N3CCN(C(=O)Cc4ccc(F)cc4)CC3)nc2)n1`, for which the RP-LC retention time stood at 925 s.
`COc1cc(OC)cc(-c2nc(-c3ccc4c(c3)ncn4CCN3CCCC3)no2)c1` gave an RP-LC retention time of 684 s.
Then `CC1(C(=O)NCc2ccc(Cl)cc2)CN(S(C)(=O)=O)CC(=O)N1CCc1ccccc1` (centres undefined), with 906 s; and `COc1cc(C2OC(c3ccc(Br)cc3)=NN2C(C)=O)ccc1OC(C)=O` (centres undefined), with 1000 s; and `CCn1cc(C)c(C(=O)O)c1CC(=O)NCCCN1CCOCC1`, with 588 s.
Regarding `COc1ccccc1CC(=O)N1CCC2(CC1)N=C(c1ccc(Cl)cc1)NO2`, the RP-LC retention time is 884 s.
As for `COc1ccc(-c2ccc(C(=O)N3CCCc4ccccc43)o2)c([N+](=O)[O-])c1`, the RP-LC retention time is 976 s.
On to `CCOC(=O)C(C)Sc1nnc(NC(=O)c2cccc([N+](=O)[O-])c2C)s1` (centres undefined), for which the RP-LC retention time turned out to be 859 s.
The compound `Cc1c(Cl)cccc1NC(=O)C1CCN(c2c(C(=O)N3CCC(C)CC3)cnc3snc(C)c23)CC1` came in with an RP-LC retention time of 1040 s.
The result for `Cc1ccc(S(=O)(=O)N2CCCC(c3nnc(COc4ccccc4)o3)C2)c(C)c1` (centres undefined) reads 984 s; that for `COc1ccccc1CNC(=O)CCc1nnc2c3cc(-c4ccccc4)nn3ccn12`, 750 s; that for `CCn1c(=O)c(C)nc2cc(-c3noc(-c4sccc4C)n3)ccc21`, 1080 s.
In turn, `O=C(Cc1cc(-c2ccc(F)cc2)on1)NCCc1c[nH]c2ccccc12` displayed an RP-LC retention time of 824 s.
Then `CCN1c2cc(F)ccc2C(=O)NC12CCN(C(=O)c1ccc(F)cc1)CC2`, with 714 s.
The result for `CC(C)CN(Cc1cccnc1)C1CN(S(=O)(=O)Cc2ccccc2)C1` reads 719 s; that for `COc1ccc(-c2noc(CN3C(=O)COc4ccc(Cl)cc43)n2)cc1`, 1050 s.
Then `CCC(=O)N1CCc2cc(N3CC(C(=O)NCc4ccccc4F)CC3=O)ccc21` (centres undefined), with 722 s.
